The values that follow come from patent US20240158392A1 (Janssen Biotech, Inc., priority 2021, published 2024).

The structures appear in SMILES notation.

The target in assay [1] is T1, SIK2 (Homo sapiens, UniProt Q9H0K1). Nature of the assay: SIK2 Enzymatic Assay Version 1 (ADP Glo). The class given is biochemical. The settings on record: enzyme 0.6 nM, 160 μM ATP and 140 μM HDAC5tide (each 2× final concentration); 30 minutes pre-incubation, 4 hours; ADPGlo luminescence; read-out: SIK2 ADP Glo IC50 (μM) (Test Example 1). As to the method: All steps were performed at room temperature. Compounds were pre-plated onto an assay plate using an Echo acoustic dispenser (Labcyte, E550 or E555) at 20 nL per well. Enzyme prepared in Assay Buffer at 0.6 nM (2× final concentration) was added at 2 μL per well using the Multidrop Combi (Thermo Fisher—used for all additions in this assay) to the assay plate, spun for 1 min at 800-850 rpm (Allegra 6KR Beckman Coulter centrifuge), and incubated with compound for 30 minutes.
T1 sequence (Q9H0K1 whole entry, species assumed): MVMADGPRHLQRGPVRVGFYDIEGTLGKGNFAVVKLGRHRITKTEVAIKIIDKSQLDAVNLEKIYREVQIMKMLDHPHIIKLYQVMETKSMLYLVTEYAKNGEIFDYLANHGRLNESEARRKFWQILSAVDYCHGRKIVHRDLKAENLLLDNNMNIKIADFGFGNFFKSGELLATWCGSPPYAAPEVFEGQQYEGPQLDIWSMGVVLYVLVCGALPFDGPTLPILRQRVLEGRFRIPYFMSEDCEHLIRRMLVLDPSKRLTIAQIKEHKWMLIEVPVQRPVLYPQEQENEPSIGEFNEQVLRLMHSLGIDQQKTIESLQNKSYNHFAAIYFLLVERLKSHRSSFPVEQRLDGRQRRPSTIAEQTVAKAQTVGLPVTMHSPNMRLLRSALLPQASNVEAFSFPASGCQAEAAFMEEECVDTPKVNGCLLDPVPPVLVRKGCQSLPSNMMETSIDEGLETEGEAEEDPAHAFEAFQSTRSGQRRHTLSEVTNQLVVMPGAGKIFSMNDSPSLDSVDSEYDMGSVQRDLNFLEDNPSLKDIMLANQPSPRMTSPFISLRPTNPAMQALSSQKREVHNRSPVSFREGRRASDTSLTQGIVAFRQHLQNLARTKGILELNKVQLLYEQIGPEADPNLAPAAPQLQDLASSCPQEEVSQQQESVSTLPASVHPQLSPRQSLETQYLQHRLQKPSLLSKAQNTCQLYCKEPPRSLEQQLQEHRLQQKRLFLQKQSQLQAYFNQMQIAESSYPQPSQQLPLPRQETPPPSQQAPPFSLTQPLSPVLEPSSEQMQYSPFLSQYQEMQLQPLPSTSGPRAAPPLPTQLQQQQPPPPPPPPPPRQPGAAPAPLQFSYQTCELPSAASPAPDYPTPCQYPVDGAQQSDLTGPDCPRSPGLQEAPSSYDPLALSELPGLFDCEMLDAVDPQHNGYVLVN
One column of wells was dedicated to a no-peptide negative control (containing only ATP). ADPGlo Reagent (prepared and aliquoted as per manufacturer instructions) was then added at 2 μL per well, spun and incubated for 40 min. ADPGlo Detection (prepared and aliquoted as per manufacturer instructions) was added at 2 μL per well to the assay plate, which was spun and incubated for at least 30 min. The plate was then read on the Pherastar (BMG Labtech) using a luminescence read. Gain was set by the 0.1 mM concentration of ADP wells in the ADP/ATP standard curve plate generated as per manufacturer instructions.
On the technique in general: In ADP-Glo the light output rises with the ADP produced.

Assay [2] concerns the target T1, SIK2. Nature of the assay: SIK2 Enzymatic Assay High Version 2 (High ATP). It counts as biochemical. The gist of the method:
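At room temperature, enzyme (6 nM, 2× final) was preincubated with compound for 30 min, then 6 mM ATP and 400 μM HDAC5tide (both 2× final) were added for 2 h. ADP formed was measured by ADP-Glo Max (2 h reagent, 1 h detection) using luminescence.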

Consider `Cc1cc(-c2ccn3nc(NC(=O)C4CC4)cc3c2)c(O[C@H]2C[C@H]3COC[C@@H](C2)N3)cn1` [Example 136, endo-N-(5-(5-(((1R,5S,7s)-3-oxa-9-azabicyclo[3.3.1]nonan-7-yl)oxy)-2-methylpyridin-4-yl)pyrazolo[1,5-a]pyridin-2-yl)cyclopropanecarboxamide], for which the half-maximal inhibitory concentration (IC50) – broadly, the midpoint of a concentration-inhibition curve – was 0.000208 µM at SIK2 [1] and less than 0.000838 µM against SIK2 [2].
For `CC1(C)CNC[C@@H](COc2ccc(C#N)cc2-c2ccn3nc(NC(=O)C4CC4)cc3c2)O1` [Example 104, N-[5-[5-cyano-2-[[(2S)-6,6-dimethylmorpholin-2-yl]methoxy]phenyl]pyrazolo[1,5-a]pyridin-2-yl]cyclopropanecarboxamide] the same measures were 0.00588 µM and 0.031 µM.
For `CN1CCC[C@@H](COc2cnc(C#N)cc2-c2ccn3nc(NC(=O)C4CC4)cc3c2)C1` [Example 37, (R)—N-(5-(2-cyano-5-((1-methylpiperidin-3-yl)methoxy)pyridin-4-yl)pyrazolo[1,5-a]pyridin-2-yl)cyclopropanecarboxamide], the IC50 at SIK2 [1] came out at 0.00725 µM; against SIK2 [2], 0.111 µM.
As for `C[C@]1(O)CC[C@@H](Oc2cnc(C#N)cc2-c2ccn3nc(NC(=O)C4CC4)cc3c2)CC1` [Example 89], the IC50 worked out at 0.000299 µM on SIK2 [1] and 0.00304 µM against SIK2 [2].
The matching figures for `N#CCN[C@H]1C[C@@H](COc2cnc(C#N)cc2-c2ccn3nc(NC(=O)C4CC4)cc3c2)C1` [Example 596, N-[5-[2-cyano-5-[[3-(cyanomethylamino)cyclobutyl]methoxy]-4-pyridyl]pyrazolo[1,5-a]pyridin-2-yl]cyclopropanecarboxamide]: 0.00125 µM and 0.0146 µM.
As for `N#Cc1cc(-c2ccn3nc(NC(=O)C4CC4)cc3c2)c(OCC2CNC2)cn1` [Example 23, N-[5-[5-(azetidin-3-ylmethoxy)-2-cyano-4-pyridyl]pyrazolo[1,5-a]pyridin-2-yl]cyclopropanecarboxamide], the IC50 was 0.0021 µM at SIK2 [1] and 0.0163 µM on SIK2 [2].
As to `Cc1cc(-c2ccn3nc(NC(=O)C4CC4)cc3c2)c(OC[C@@H](N)C(C)(C)C)cn1` [Example 149, N-[5-[5-[(2S)-2-amino-3,3-dimethyl-butoxy]-2-methyl-4-pyridyl]pyrazolo[1,5-a]pyridin-2-yl]cyclopropanecarboxamide], the IC50 at SIK2 [1] came to 0.0122 µM.
As for `N#Cc1cc(-c2ccn3nc(NC(=O)C4CC4)cc3c2)c(O[C@H]2C[C@H]3C[C@@H]2CN3)cn1` (single isomer, unassigned) [Example 18, N-[5-[5-[[(1*R,4*R,5*S)-2-azabicyclo[2.2.1]heptan-5-yl]oxy]-2-cyano-4-pyridyl]pyrazolo[1,5-a]pyridin-2-yl]cyclopropanecarboxamide], the IC50 on SIK2 [1] was 0.00158 µM.
The same measure, in the same setting: the same measure for `N#Cc1cc(-c2ccn3nc(NC(=O)C4CC4)cc3c2)c(N2CCC(O)(C(F)(F)F)C2)cn1` (racemic) [Example 87, (rac-)-N-[5-[2-cyano-5-[3-hydroxy-3-(trifluoromethyl)pyrrolidin-1-yl]-4-pyridyl]pyrazolo[1,5-a]pyridin-2-yl]cyclopropanecarboxamide]: 0.118 µM; for `COc1c(C)cccc1-c1ccn2nc(NC(=O)C3CC3)cc2c1` [Example 747, N-[5-(2-methoxy-3-methyl-phenyl)pyrazolo[1,5-a]pyridin-2-yl]cyclopropanecarboxamide]: 0.0312 µM.
As for `COc1ccncc1-c1ccn2nc(NC(=O)C3CC3)cc2c1` [Example 751, N-[5-(4-methoxy-3-pyridyl)pyrazolo[1,5-a]pyridin-2-yl]cyclopropanecarboxamide], the IC50 on SIK2 [1] came out at 0.198 µM.
With `Cc1cc(-c2ccn3nc(NC(=O)C4CC4)cc3c2)c(O[C@@H]2C[C@H]3CC[C@@H](C2)N3C)cn1` [Example 140, N-(5-(2-methyl-5-(((1R,3r,5S)-8-methyl-8-azabicyclo[3.2.1]octan-3-yl)oxy)pyridin-4-yl)pyrazolo[1,5-a]pyridin-2-yl)cyclopropanecarboxamide], at SIK2 [1], the IC50 is 0.0195 µM.
On the same count and under the same terms, for `Cc1cc(-c2ccn3nc(NC(=O)C4CC4)cc3c2)c(OC2CN(C(C)C)C2)cn1` [Example 142, N-[5-[5-(1-isopropylazetidin-3-yl)oxy-2-methyl-4-pyridyl]pyrazolo[1,5-a]pyridin-2-yl]cyclopropanecarboxamide] the value was 0.0448 µM; for `CN1CC2(C1)CN(c1cnc(C#N)cc1-c1ccn3nc(NC(=O)C4CC4)cc3c1)C2` [Example 91, N-[5-[2-cyano-5-(2-methyl-2,6-diazaspiro[3.3]heptan-6-yl)-4-pyridyl]pyrazolo[1,5-a]pyridin-2-yl]cyclopropanecarboxamide], 0.0688 µM.
The same measure, in the same setting: for `CCOc1ccccc1-c1ccn2nc(NC(=O)C3CC3)cc2c1` [Example 743, N-[5-(2-ethoxyphenyl)pyrazolo[1,5-a]pyridin-2-yl]cyclopropanecarboxamide] the value was 0.0217 µM.
Regarding `CC(C)(C)OC(=O)COc1cnc(C#N)cc1-c1ccn2nc(NC(=O)C3CC3)cc2c1` [Example 55, tert-butyl 2-[[6-Cyano-4-[2-(cyclopropanecarbonylamino)pyrazolo[1,5-a]pyridin-5-yl]-3-pyridyl]oxy]acetate], at SIK2 [1], the half-inhibitory concentration (IC50) was determined as 0.0096 µM.
As for `CN1CCOC[C@@H](Oc2cnc(C#N)cc2-c2ccn3nc(NC(=O)C4CC4)cc3c2)C1` [Example 26, N-[5-[2-cyano-5-[[(6S)-4-methyl-1,4-oxazepan-6-yl]oxy]-4-pyridyl]pyrazolo[1,5-a]pyridin-2-yl]cyclopropanecarboxamide], the half-maximal inhibitory concentration (IC50) on SIK2 [1] was found to be 0.0123 µM.
Same read-out and setting: for `N#Cc1cc(-c2ccn3nc(NC(=O)C4CC4)cc3c2)c(NC2CC2)cn1` [Example 80, N-[5-[2-cyano-5-(cyclopropylamino)-4-pyridyl]pyrazolo[1,5-a]pyridin-2-yl]cyclopropanecarboxamide] the value was 0.0703 µM; for `Cn1cc(Nc2cnc(C#N)cc2-c2ccn3nc(NC(=O)C4CC4)cc3c2)cn1` [Example 79, N-[5-[2-cyano-5-[(1-methylpyrazol-4-yl)amino]-4-pyridyl]pyrazolo[1,5-a]pyridin-2-yl]cyclopropanecarboxamide], 0.389 µM; for `N#Cc1cc(-c2ccn3nc(NC(=O)C4CC4)cc3c2)c(OCc2ccc(C(F)(F)F)nc2)cn1` [Example 61, N-[5-[2-cyano-5-[[6-(trifluoromethyl)-3-pyridyl]methoxy]-4-pyridyl]pyrazolo[1,5-a]pyridin-2-yl]cyclopropanecarboxamide], 0.0103 µM.
As for `CNC(=O)C1CN(c2cnc(C#N)cc2-c2ccn3nc(NC(=O)C4CC4)cc3c2)C1` [Example 73, 1-[6-cyano-4-[2-(cyclopropanecarbonylamino)pyrazolo[1,5-a]pyridin-5-yl]-3-pyridyl]-N-methyl-azetidine-3-carboxamide], at SIK2 [1], the IC50 is 0.0846 µM.
The same measure, in the same setting: the same measure for `Cc1cc(-c2ccn3nc(Nc4ccc(C(=O)NC5CC5)c(F)c4)cc3c2)c(OCC(C)(C)O)cn1` [Example 615, N-cyclopropyl-2-fluoro-4-[[5-[5-(2-hydroxy-2-methyl-propoxy)-2-methyl-4-pyridyl]pyrazolo[1,5-a]pyridin-2-yl]amino]benzamide]: 0.0117 µM; for `CN(C)CC1CN(c2cnc(C#N)cc2-c2ccn3nc(NC(=O)C4CC4)cc3c2)C1` [Example 72, N-[5-[2-cyano-5-[3-(dimethylaminomethyl)azetidin-1-yl]-4-pyridyl]pyrazolo[1,5-a]pyridin-2-yl]cyclopropanecarboxamide]: 0.15 µM.
